Patent publication US8952024B2, “Herbicidal pyrimidone derivatives” (E I du Pont de Nemours and Company, priority 2009, dated 2015)

Key:
Assay in all cases: Test D pre-/postemergence plant response
Type in all cases: in vivo
[1] = test system: Russian thistle (Salsola kali)
How it was run: (§1)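 Visual 0–100 scoring (100 = complete control) versus untreated controls after 14–21 greenhouse days. Compounds, formulated in surfactant-containing non-phytotoxic solvent, were applied preemergence to seeded loam/sand and postemergence to 2–18 cm plants (1–4 leaves).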

[2] = test system: bermudagrass (Cynodon dactylon)
How it was run: as §1

[3] = test system: black mustard (Brassica nigra)
How it was run: as §1

[4] = test system: chickweed (common chickweed, Stellaria media); settings: Postemergence
How it was run: as §1

[5] = test system: field bindweed (Convolvulus arvensis)
How it was run: as §1

[6] = test system: goosegrass (Eleusine indica)
How it was run: as §1

[7] = test system: green foxtail (Setaria viridis)
How it was run: as §1

[8] = test system: groundsel (common groundsel, Senecio vulgaris); settings: Postemergence
How it was run: as §1

[9] = test system: johnsongrass (Sorghum halepense)
How it was run: as §1

[10] = test system: kochia (Kochia scoparia)
How it was run: as §1

[11] = test system: mallow (common mallow, Malva sylvestris)
How it was run: as §1

[12] = test system: morningglory (pitted morningglory, Ipomoea lacunosa)
How it was run: as §1

[13] = test system: nutsedge (purple nutsedge, Cyperus rotundus)
How it was run: as §1

[14] = test system: prickly sida (Sida spinosa)
How it was run: as §1

[15] = test system: purslane (common purslane, Portulaca oleracea)
How it was run: as §1

[16] = test system: sowthistle (common sowthistle, Sonchus oleraceous)
How it was run: as §1

[17] = test system: spanishneedles (Bidens bipinnata)
How it was run: as §1

[18] = Postemergence, 125 g ai/ha, scale 0 to 100 (0 no effect, 100 complete control)
[19] = Preemergence, 16 g ai/ha, scale 0 to 100, 0 no effect, 100 complete control
[20] = Preemergence, 31 g ai/ha, scale 0 to 100 (0 no effect, 100 complete control)
[21] = Preemergence, 125 g ai/ha, scale 0 to 100
[22] = Postemergence, 16 g ai/ha, scale 0 to 100
[23] = Postemergence, 31 g ai/ha, scale 0 to 100 (0 no effect, 100 complete control)
[24] = Postemergence, 62 g ai/ha, scale 0 to 100 (0 no effect, 100 complete control)
[25] = Preemergence, 62 g ai/ha, scale 0 to 100
[26] = 125 g ai/ha, scale 0 to 100 (0 no effect, 100 complete control)
[27] = 62 g ai/ha, scale 0 to 100 (0 no effect, 100 complete control)
[28] = Postemergence, 31 g ai/ha, scale 0 to 100

For `O=C1CCCC(O)=C1C(=O)c1cnc(C2CC2)n(-c2ccccc2)c1=O` [Compound 87], the “Plant response rating, Russian Thistle” value [1, 18] was 35, the “Plant response rating, Russian Thistle” value [1, 19] was 50 and the “Plant response rating, Russian Thistle” value [1, 20] was 75. The “Plant response rating, Russian Thistle” value [1, 21] was 100, the “Plant response rating, Bermudagrass” value [2, 22] was 65 and the “Plant response rating, Bermudagrass” value [2, 23] was 65. The “Plant response rating, Bermudagrass” value [2, 18] was 85, the “Plant response rating, Bermudagrass” value [2, 24] was 70 and the “Plant response rating, Bermudagrass” value [2, 19] was 65. For the same molecule, the “Plant response rating, Bermudagrass” value [2, 20] was 65, the “Plant response rating, Bermudagrass” value [2, 25] was 98 and the “Plant response rating, Bermudagrass” value [2, 21] was 98. For the same molecule, the “Plant response rating, Black Mustard” value [3, 22] was 40, the “Plant response rating, Black Mustard” value [3, 23] was 65 and the “Plant response rating, Black Mustard” value [3, 18] was 100. The “Plant response rating, Black Mustard” value [3, 24] was 100, the “Plant response rating, Black Mustard” value [3, 19] was 75 and the “Plant response rating, Black Mustard” value [3, 20] was 75. For the same molecule, the “Plant response rating, Black Mustard” value [3, 25] was 100, the “Plant response rating, Black Mustard” value [3, 21] was 100 and the “Plant response rating, Chickweed” value ([4]; 16 g ai/ha, scale 0 to 100) was 75. For the same molecule, the “Plant response rating, Chickweed” value ([4]; 31 g ai/ha, scale 0 to 100) was 75, the “Plant response rating, Chickweed” value [4, 26] was 100 and the “Plant response rating, Chickweed” value [4, 27] was 75. For the same molecule, the “Plant response rating, Field Bindweed” value [5, 22] was 0, the “Plant response rating, Field Bindweed” value [5, 28] was 15 and the “Plant response rating, Field Bindweed” value [5, 18] was 40. For the same molecule, the “Plant response rating, Field Bindweed” value [5, 24] was 25, the “Plant response rating, Field Bindweed” value [5, 19] was 0 and the “Plant response rating, Field Bindweed” value [5, 20] was 0. For the same molecule, the “Plant response rating, Field Bindweed” value [5, 25] was 40, the “Plant response rating, Field Bindweed” value [5, 21] was 70 and the “Plant response rating, Goosegrass” value [6, 22] was 30. For the same molecule, the “Plant response rating, Goosegrass” value [6, 28] was 35, the “Plant response rating, Goosegrass” value [6, 18] was 65 and the “Plant response rating, Goosegrass” value [6, 24] was 65. The “Plant response rating, Goosegrass” value [6, 19] was 35, the “Plant response rating, Goosegrass” value [6, 20] was 35 and the “Plant response rating, Goosegrass” value [6, 25] was 95. For the same molecule, the “Plant response rating, Goosegrass” value [6, 21] was 100, the “Plant response rating, Foxtail, Green” value [7, 22] was 5 and the “Plant response rating, Foxtail, Green” value [7, 28] was 30. For the same molecule, the “Plant response rating, Foxtail, Green” value [7, 18] was 60, the “Plant response rating, Foxtail, Green” value [7, 24] was 35 and the “Plant response rating, Foxtail, Green” value [7, 19] was 0. The “Plant response rating, Foxtail, Green” value [7, 20] was 0, the “Plant response rating, Foxtail, Green” value [7, 25] was 0 and the “Plant response rating, Foxtail, Green” value [7, 21] was 10. The “Plant response rating, Groundsel” value ([8]; 16 g ai/ha, scale 0 to 100) was 98, the “Plant response rating, Groundsel” value ([8]; 31 g ai/ha, scale 0 to 100) was 98 and the “Plant response rating, Groundsel” value [8, 26] was 100. The “Plant response rating, Groundsel” value [8, 27] was 100, the “Plant response rating, Johnsongrass” value [9, 22] was 20 and the “Plant response rating, Johnsongrass” value [9, 28] was 30. The “Plant response rating, Johnsongrass” value [9, 18] was 60, the “Plant response rating, Johnsongrass” value [9, 24] was 40 and the “Plant response rating, Johnsongrass” value [9, 19] was 0. For the same molecule, the “Plant response rating, Johnsongrass” value [9, 20] was 5, the “Plant response rating, Johnsongrass” value [9, 25] was 20 and the “Plant response rating, Johnsongrass” value [9, 21] was 70. The “Plant response rating, Kochia” value [10, 22] was 25, the “Plant response rating, Kochia” value [10, 28] was 35 and the “Plant response rating, Kochia” value [10, 18] was 60. For the same molecule, the “Plant response rating, Kochia” value [10, 24] was 35, the “Plant response rating, Kochia” value [10, 19] was 65 and the “Plant response rating, Kochia” value [10, 20] was 98. For the same molecule, the “Plant response rating, Kochia” value [10, 25] was 100, the “Plant response rating, Kochia” value [10, 21] was 100 and the “Plant response rating, Mallow” value [11, 22] was 40. For the same molecule, the “Plant response rating, Mallow” value [11, 28] was 60, the “Plant response rating, Mallow” value [11, 18] was 70 and the “Plant response rating, Mallow” value [11, 24] was 70. The “Plant response rating, Mallow” value [11, 25] was 80, the “Plant response rating, Mallow” value [11, 21] was 100 and the “Plant response rating, Morningglory” value [12, 22] was 40. The “Plant response rating, Morningglory” value [12, 28] was 40, the “Plant response rating, Morningglory” value [12, 18] was 50 and the “Plant response rating, Morningglory” value [12, 24] was 40. For the same molecule, the “Plant response rating, Morningglory” value [12, 19] was 10, the “Plant response rating, Morningglory” value [12, 25] was 80 and the “Plant response rating, Morningglory” value [12, 21] was 95. For the same molecule, the “Plant response rating, Nutsedge, Purple” value [13, 22] was 0, the “Plant response rating, Nutsedge, Purple” value [13, 28] was 10 and the “Plant response rating, Nutsedge, Purple” value [13, 18] was 50. For the same molecule, the “Plant response rating, Nutsedge, Purple” value [13, 24] was 20, the “Plant response rating, Nutsedge, Purple” value [13, 19] was 0 and the “Plant response rating, Nutsedge, Purple” value [13, 20] was 5. The “Plant response rating, Nutsedge, Purple” value [13, 25] was 50, the “Plant response rating, Nutsedge, Purple” value [13, 21] was 75 and the “Plant response rating, Prickly Sida” value [14, 22] was 70. For the same molecule, the “Plant response rating, Prickly Sida” value [14, 28] was 80, the “Plant response rating, Prickly Sida” value [14, 18] was 95 and the “Plant response rating, Prickly Sida” value [14, 24] was 80. For the same molecule, the “Plant response rating, Prickly Sida” value [14, 19] was 50, the “Plant response rating, Prickly Sida” value [14, 20] was 60 and the “Plant response rating, Prickly Sida” value [14, 25] was 100. For the same molecule, the “Plant response rating, Prickly Sida” value [14, 21] was 100, the “Plant response rating, Purslane” value [15, 22] was 10 and the “Plant response rating, Purslane” value [15, 28] was 25. The “Plant response rating, Purslane” value [15, 18] was 35, the “Plant response rating, Purslane” value [15, 24] was 35 and the “Plant response rating, Purslane” value [15, 19] was 70. The “Plant response rating, Purslane” value [15, 20] was 100, the “Plant response rating, Purslane” value [15, 25] was 100 and the “Plant response rating, Purslane” value [15, 21] was 100. The “Plant response rating, Sowthistle” value [16, 22] was 90, the “Plant response rating, Sowthistle” value [16, 28] was 98 and the “Plant response rating, Sowthistle” value [16, 18] was 100. For the same molecule, the “Plant response rating, Sowthistle” value [16, 24] was 98, the “Plant response rating, Sowthistle” value [16, 19] was 98 and the “Plant response rating, Sowthistle” value [16, 20] was 100. The “Plant response rating, Sowthistle” value [16, 21] was 100, the “Plant response rating, Spanishneedles” value [17, 22] was 60 and the “Plant response rating, Spanishneedles” value [17, 28] was 60. For the same molecule, the “Plant response rating, Spanishneedles” value [17, 18] was 70, the “Plant response rating, Spanishneedles” value [17, 24] was 60 and the “Plant response rating, Spanishneedles” value [17, 19] was 0. For the same molecule, the “Plant response rating, Spanishneedles” value [17, 20] was 65 and the “Plant response rating, Spanishneedles” value [17, 21] was 98.
